Bridge positions count the residues as written; N and C are the ends. Square brackets hold non-standard residues; d marks the D form. Peptide text beside a SMILES is read from it. * marks the point of attachment. ξ: configuration not given here. Bip = N[C@@H](Cc1ccc(-c2ccccc2)cc1)C(=O)O; Phe(3-Me) = Cc1cccc(C[C@H](N)C(=O)O)c1; 4Pal = N[C@@H](Cc1ccncc1)C(=O)O; Cha = N[C@@H](CC1CCCCC1)C(=O)O; Cit = NC(=O)NCCC[C@H](N)C(=O)O; Thr(3ξ) = CC(O)[C@H](N)C(=O)O; 12Ado = NCCCCCCCCCCCC(=O)O; hSer = N[C@@H](CCO)C(=O)O; Carboxymethyl = O=C(O)C*; Orn = NCCC[C@H](N)C(=O)O; Dab = NCC[C@H](N)C(=O)O; Dap = NC[C@H](N)C(=O)O; X11 = CC(C)(F)C(=O)*

T1 sequence (Q15116 25-288): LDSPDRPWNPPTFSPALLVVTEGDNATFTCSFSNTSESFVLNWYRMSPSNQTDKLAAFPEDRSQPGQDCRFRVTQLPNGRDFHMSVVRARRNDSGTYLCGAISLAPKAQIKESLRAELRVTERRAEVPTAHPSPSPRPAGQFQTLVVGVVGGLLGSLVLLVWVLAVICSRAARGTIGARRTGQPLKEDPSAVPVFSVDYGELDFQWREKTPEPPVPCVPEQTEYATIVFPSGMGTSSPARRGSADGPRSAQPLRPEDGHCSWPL

The test has as its target T1, PD-1/PD-L1 interaction (PE-labeled human PD-L1-Ig binding to Jurkat cell line over-expressing human PD-1) (Homo sapiens, UniProt Q15116).
T1 construct: expressed in transfected cells; host or cells: Jurkat
Description: Jurkat-PD-1 Cell Binding High-Content Screening Assay (CBA). To be noted: Jurkat cell line over-expressing human PD-1; PE-labeled PD-L1-Ig 20 nM final; read-out: Jurkat hPD1-PDL1 IC50. It counts as cell-based. The essentials:
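Binding of fluorescent PD-L1-Ig (phycoerythrin on Ig tag, 20 nM final, 1 h) measured by high-content imaging of fixed, Hoechst-counterstained Jurkat-hPD-1 cells. Compound added 2 h at 37° C beforehand, in DMEM with 10% fetal calf serum.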
Take `Cc1cccc(C[C@@H]2NC(=O)[C@H](CC(=O)O)NC(=O)[C@H](Cc3ccc(OCC(=O)O)cc3)NC(=O)[C@H](Cc3ccncc3)NC(=O)CSC[C@@H](C(=O)N[C@@H](CCCN)C(=O)N[C@@H](CO)C(=O)NCCCCCCCCCCCC(=O)O)NC(=O)[C@H](C(C)O)NC(=O)[C@H](C(C)C)NC(=O)[C@H](CC3CCCCC3)NC(=O)[C@H](CCN)NC(=O)[C@@H](CC(C)C)NC(=O)[C@H](CCCN)NC(=O)[C@H](CCCNC(=O)C(C)(C)F)NC(=O)[C@H](Cc3ccc(-c4ccccc4)cc3)NC(=O)[C@H](Cc3ccc(O)cc3)NC2=O)c1` (stereo partly drawn) [Compound 3584] ({CH2CO}-[4Pal]Y(Carboxymethyl)D[Phe(3-Me)]Y[Bip][Orn](X11)[Orn][dL][Dab][Cha]V[Thr(3ξ)]C[Orn]S[12Ado]-OH; thioether N-14): the IC50 came out at 38.2 nM.

In the case of `Cc1cccc(C[C@@H]2NC(=O)[C@H](CC(=O)O)NC(=O)[C@H](Cc3ccc(OCC(=O)O)cc3)NC(=O)[C@H](Cc3ccncc3)NC(=O)CSC[C@@H](C(=O)N[C@@H](CCCN)C(=O)N[C@@H](CO)C(=O)NCCCCCCCCCCCC(=O)O)NC(=O)[C@H](C(C)O)NC(=O)[C@H](C(C)C)NC(=O)[C@H](CC3CCCCC3)NC(=O)[C@H](CCN)NC(=O)[C@@H](CC(C)C)NC(=O)[C@H](CCCN)NC(=O)[C@H](CCCNC(N)=O)NC(=O)[C@H](Cc3ccc(-c4ccccc4)cc3)NC(=O)[C@H](C(C)C)NC2=O)c1` (stereo partly drawn) [Compound 3585] ({CH2CO}-[4Pal]Y(Carboxymethyl)D[Phe(3-Me)]V[Bip][Cit][Orn][dL][Dab][Cha]V[Thr(3ξ)]C[Orn]S[12Ado]-OH; thioether N-14), the 50% inhibitory concentration (IC50) worked out at 30.8 nM. The result for `Cc1cccc(C[C@@H]2NC(=O)[C@H](CC(=O)O)NC(=O)[C@H](Cc3ccc(OCC(=O)O)cc3)NC(=O)[C@H](CN)NC(=O)CSC[C@@H](C(=O)N[C@@H](CCCN)C(=O)N[C@@H](CO)C(=O)NCCCCCCCCCCCC(=O)O)NC(=O)[C@H](C(C)O)NC(=O)[C@H](C(C)C)NC(=O)[C@H](CC3CCCCC3)NC(=O)[C@H](CCN)NC(=O)[C@@H](CC(C)C)NC(=O)[C@H](CCCN)NC(=O)[C@H](CCCNC(N)=O)NC(=O)[C@H](Cc3ccc(-c4ccccc4)cc3)NC(=O)[C@H](Cc3ccc(O)cc3)NC2=O)c1` (stereo partly drawn) [Compound 3586] ({CH2CO}-[Dap]Y(Carboxymethyl)D[Phe(3-Me)]Y[Bip][Cit][Orn][dL][Dab][Cha]V[Thr(3ξ)]C[Orn]S[12Ado]-OH; thioether N-14) reads 30.1 nM; that for `Cc1cccc(C[C@@H]2NC(=O)[C@H](CC(=O)O)NC(=O)[C@H](Cc3ccc(OCC(=O)O)cc3)NC(=O)[C@H](CN)NC(=O)CSC[C@@H](C(=O)N[C@@H](CCCN)C(=O)N[C@@H](CO)C(=O)NCCCCCCCCCCCC(=O)O)NC(=O)[C@H](C(C)O)NC(=O)[C@H](CCO)NC(=O)[C@H](CC3CCCCC3)NC(=O)[C@H](CCN)NC(=O)[C@@H](CC(C)C)NC(=O)[C@H](CCCN)NC(=O)[C@H](CCCNC(N)=O)NC(=O)[C@H](Cc3ccc(-c4ccccc4)cc3)NC(=O)[C@H](C(C)C)NC2=O)c1` (stereo partly drawn) [Compound 3587] ({CH2CO}-[Dap]Y(Carboxymethyl)D[Phe(3-Me)]V[Bip][Cit][Orn][dL][Dab][Cha][hSer][Thr(3ξ)]C[Orn]S[12Ado]-OH; thioether N-14), 33.5 nM; that for `Cc1cccc(C[C@@H]2NC(=O)[C@H](CC(=O)O)NC(=O)[C@H](Cc3ccc(OCC(=O)O)cc3)NC(=O)[C@H](CN)NC(=O)CSC[C@@H](C(=O)N[C@@H](CCN)C(=O)N[C@@H](CO)C(=O)NCCCCCCCCCCCC(=O)O)NC(=O)[C@H](CCCN)NC(=O)[C@H](C(C)C)NC(=O)[C@H](CC3CCCCC3)NC(=O)[C@H](CCN)NC(=O)[C@@H](CC(C)C)NC(=O)[C@H](CCCN)NC(=O)[C@H](Cc3ccc(O)cc3)NC(=O)[C@H](Cc3ccc(-c4ccccc4)cc3)NC(=O)[C@H](C(C)C)NC2=O)c1` [Compound 3588] ({CH2CO}-[Dap]Y(Carboxymethyl)D[Phe(3-Me)]V[Bip]Y[Orn][dL][Dab][Cha]V[Orn]C[Dab]S[12Ado]-OH; thioether N-14), 16.7 nM.
